Reference: patent US11622951B2, “Alpha-aminoadipate for treatment of vision loss and restoring sight” (The Schepens Eye Research Institute, Inc., priority 2013, dated 2023)

Columns and labels:
[1] = test system: retinal glial cells (GFAP expression); assay: GFAP immunolabeling of retinal glia after subretinal injection; format: in vivo, mouse; conditions: adult wild-type mice
Description: Mice were anesthetized by intraperitoneal injection of ketamine (62.5 mg/kg) and xylazine (12.5 mg/kg) and transcardially perfused with phosphate buffered saline (PBS) followed by 4% paraformaldehyde in PBS. Retinal flat-mounts or transverse retinal sections (14 μm) were preblocked with PBS containing 3% bovine serum albumin (Sigma-Aldrich, St. Louis, Mo.) and 0.3% Triton X (Sigma-Aldrich) and incubated, first, with primary antibody overnight, and then with secondary antibody for 1 hour at room temperature. […] Assessment of morphological integration were quantified by counting EGFP+ cells located outside of transplanted cell clusters in retinal whole-mounts. Statistical significance was determined by either the two tailed student t test or ANOVA.
Retinal astrocytes and Müller glia are central to the homeostatic and metabolic support of retinal neurons; whereas, after injury these cells develop glial scar that forms critical barriers to neuron regeneration and integration by retinal progenitor cells. […] Retinal glial morphology was examined by immunolabeling for glial marker GFAP and assessed the level of GFAP expression by Western blot at day 1-7 post injection. Expression of GFAP is widely detected in the normal mouse retinas (FIG. 1a).

[2] = test system: transplanted retinal progenitors; assay: Differentiation of transplanted retinal progenitors in pretreated host retina (immunohistochemistry); format: in vivo, mouse; conditions: pretreated wild-type hosts, 21 days post transplantation
Description: Mice were anesthetized by intraperitoneal injection of ketamine (62.5 mg/kg) and xylazine (12.5 mg/kg) and transcardially perfused with phosphate buffered saline (PBS) followed by 4% paraformaldehyde in PBS. Retinal flat-mounts or transverse retinal sections (14 μm) were preblocked with PBS containing 3% bovine serum albumin (Sigma-Aldrich, St. Louis, Mo.) and 0.3% Triton X (Sigma-Aldrich) and incubated, first, with primary antibody overnight, and then with secondary antibody for 1 hour at room temperature. The following antibodies were used: Cy3-conjugated monoclonal antibody against GFAP (1:1000; Sigma), Brn-3b (1:200; Santa Cruz Biotechnology; Santa Cruz, Calif.), mouse anti-rhodopsin (1:4000; Rho1D4), chick anti-cone-opsin (1:300), and Cy-2, Cy-3 or Cy-5-conjugated secondary antibody (Jackson ImmunoResearch; West Grove, Pa.). Assessment of morphological integration were quantified by counting EGFP+ cells located outside of transplanted cell clusters in retinal whole-mounts. Statistical significance was determined by either the two tailed student t test or ANOVA.
At 2 days before transplantation, 2 μl of a solution containing either α-AA (1 μg/μl) or saline (control) was injected unilaterally into the subretinal space of recipient wild-type or Gnat1^−/− mice (>2 months old). […]

[3] = test system: retinal ganglion cells; assay: Cell-attached patch clamp of retinal ganglion cells from Rho-/- mice; parameters: species or system mouse; conditions: retinas extracted from treated eyes of Rho-/- mice, cells responding/recorded
Description: Mice carrying rhodopsin deficiency (Rho^−/−) were used to determine if injection of alpha-aminoadipate (αAA) is sufficient to induce neuroregeneration from endogenous retinal progenitors, e.g., Muller cells, leading to preservation and restoration of photoreceptor cell function. Light-evoked photoreceptor responses and retinal functions in Rho^−/− mice that received αAA or saline injection were assessed using ERGS and whole cell-attached patch clamp. […] Consistent with the presence of ERG b-waves in αAA-treated eye, light-elicited spiking responses in some of the ganglion cells were observed (n=4/9) (FIG. 15 A, B). Similar to findings from other types of retinal degenerative mice, an elevated level of background firing in these cells, likely due to the changes in the excitability of the presynaptic network formed by bipolar cells and amacrine cells, were also observed. In contrast, no light-elicited responses in ganglion cells were recorded from the saline-injected eyes (n=4/4, FIG. 14C). […] Additional vision and optomotor tests known in the art are conducted to assess vision restoration, such as the water maze test. Thus, a single intraocular injection of αAA may be sufficient to improve vision, in part by increasing the number of cones.

[4] = test system: cone photoreceptor cells; assay: Cone opsin immunohistochemistry of retinal sections of Rho-/- mice; format: in vivo, mouse
Description: To determine if αAA induces functional neuroregeneration in Rho^−/− mice, αAA was injected subretinally into the left eyes of 6 week-old Rho^−/− mice, while their contralateral eyes were injected with saline and served as controls. After a 4 week survival period to allow regeneration of new photoreceptors, mouse ERG was measured in both eyes and then performed immunohistochemistry to identify photoreceptor cells. Rho^−/− mice lack the rod photoreceptor cell component or ERG a-wave. As cones consist of ˜3% of photoreceptors in mice, it is difficult to assess cone action a-wave; therefore, flicker ERG photometry under cone-isolation conditions was used to measure cone functions. […] The ERG b-wave arises from neural activity downstream of photoreceptors, its presence in the αAA treated eye has a very important implication: not only is the treatment creating new or preserving existing photoreceptors, such photoreceptors are integrating into the existing retinal circuitry in such a way as to elicit activity in downstream neurons (most likely bipolar cells). […] Consistent with the presence of ERG b-waves in αAA-treated eye, light-elicited spiking responses in some of the ganglion cells were observed (n=4/9) (FIG. 15 A, B). […] In contrast, no light-elicited responses in ganglion cells were recorded from the saline-injected eyes (n=4/4, FIG. 14C). […]

[5] = test system: Muller cells; assay: Müller cell proliferation and trans-differentiation in diseased eyes of Rho-/- mice; format: in vivo, mouse; conditions: administered directly to the diseased eyes of Rho-/- mice
Text: Photoreceptor cell death can be measured or assessed by electroretinography, and a reduction or absence of a-wave and/or b-waves. […] Furthermore, proliferating Muller cells were also shown to be capable of trans-differentiating into retinal progenitor cells (expressing retinal progenitor markers).

NC(CCCC(=O)O)C(=O)O (stereo not drawn) [α-AA, alpha-aminoadipate]
GFAP immunostaining at the injection site ([1]; by day 7 post injection): reappeared at the injection site | GFAP expression around the injection site (immunolabeling) ([1]; single subretinal injection 1 μg/μl, 1-3 days post injection): effectively eliminated GFAP expression | EGFP+ cells integrated into the ONL cone-opsin positive [2]: 12% | EGFP+ cells integrated into the ONL positive for rhodopsin [2]: Approximately 80% | ganglion cells with light-elicited spiking responses [3]: 4/9 | retinal neuron damage ([4]; single intraocular injection): does not cause apparent retinal neuron damage | number of cone photoreceptor cells ([4]; single subretinal injection at 6 weeks old, vs saline-treated control): increased number of cone photoreceptor cells | proliferation of Muller cells [5]: resulted in proliferation of Muller cells
